Legend:
[1] = raw material
Method: The moisture content, CPP content and redissolving time were determined for CPP freeze-dried composition hydrated with saturated sodium chloride solution in the freeze-drying box, respectively. In addition, the CPP freeze-dried compositions hydrated for 16 h and 24 h were placed in 45° C. oven and sampled for determining CPP contents after 1 week and 2 weeks, respectively.
Moisture content, CPP content and redissolving time were determined for CPP freeze-dried composition hydrated with saturated sodium chloride solution in the dryer, respectively. In addition, the CPP freeze-dried composition hydrated for 16 h was placed in 45° C. oven, sampled after 1 week and 2 weeks, respectively and determined for CPP contents. The CPP freeze-dried composition hydrated for 16 h was placed in 40° C./75% RH stability test chamber, was sampled after 1 month and 3 months, and determined for CPP contents, which were compared with CPP monohydrate obtained by prior art hydrating process.
The moisture content, CPP content and redissolving time were determined for CPP freeze-dried composition hydrated with saturated potassium sulfate solution in the dryer, respectively. In addition, the CPP freeze-dried composition hydrated for 16 h was placed in 45° C. oven and was sampled for determining CPP contents after 1 week and 2 weeks, respectively. […]

[2] = Stability in 40° C./75% RH stability test chamber (CPP content); assay type: physicochemical; conditions: raw material
Method: The CPP freeze-dried composition hydrated for 16 h was placed in 40° C./75% RH stability test chamber, was sampled after 1 month and 3 months, and determined for CPP contents, which were compared with CPP monohydrate obtained by prior art hydrating process.
The CPP freeze-dried composition hydrated for 16 h was placed in 40° C./75% RH stability test chamber, sampled after 1 month and 3 months for determining CPP contents.

[3] = CPP content determination (HPLC); assay type: physicochemical; conditions: raw material, initial
Method: Preparation of sample stock solution (1 mg/ml anhydrous Cyclophosphamide): an appropriate amount of water is charged into sample bottle with shaking until complete dissolution of the sample, which is transferred to 500 ml volumetric flask. The sample bottle is washed with pure water to ensure complete transfer of all samples into the volumetric flask. The volumetric flask is metered into calibration and shaken for homogeneity.
Preparation of sample solution (0.5 mg/ml anhydrous Cyclophosphamide): 25 ml of sample stock solution and 5.0 ml of internal control solution (precisely weighed 185 mg of ethyl p-hydroxybenzoate control is dissolved in 1000 ml volumetric flask, to which is added 250 ml of ethanol. After shaking for dissolution, pure water is used to meter to calibration with shaking) are charged in 50 ml volumetric flask, which is metered with pure water to calibration with shaking and then used for HPLC analysis.

[4] = Bulk density (USP <616> Method I); assay type: physicochemical; conditions: active ingredient; strength NA, hydration solution NA
Method: BD is calculated by the following formula: […]
W is the theoretical weight, g;
V0 is the macroscopic volume, mL.
V0 is calculated by the following formula: […]
D is the theoretical inside diameter, cm;

[5] = Tapped density (USP <616> Method I); assay type: physicochemical; conditions: active ingredient; strength NA, hydration solution NA
[6] = Skeletal density (gas pycnometer); assay type: physicochemical; conditions: active ingredient; strength NA, hydration solution NA
Method: Skeletal Density, also known as true density, is determined at room temperature by Gas Pycnometer (Micromeritics Accupyc II 1340). Skeletal density is calculated by the following formula: […]
V1 is the true volume of the test sample, measured by Gas Pycnometer, mL.

[7] = general description; cited from earlier work
[8] = Porosity (calculated from bulk and skeletal density); assay type: physicochemical; conditions: active ingredient; strength NA, hydration solution NA
Method: The porosity is calculated with the macroscopic volume (V0) & true volume (V1) or the bulk density (ρ0) & skeletal density (ρ1) by the following formula: […]

[9] = Reconstitution time (0.9% sodium chloride injection, cyclotron 250 rpm); assay type: physicochemical; conditions: active ingredient
Method: Then the glass vial is placed on cyclotron (HY-5, Shanghai Suhao intelligent system Co. Ltd) which makes the glass vial oscillate at 250 rpm at room temperature to dissolve the active ingredient completely. The reconstitution time is recorded in Table 20.

[10] = assay type: physicochemical; conditions: air dispersion/dry model; hydration pressure 50 kPa
Method: The hydrated CPP freeze-dried composition is stirred by weighting scoop gently until flowable powder comes into being. Then 1-2 g test sample is added on injection plate. Test method and parameters are as follows:
It will be understood by a person of ordinary skill in the art that a common approach to defining the distribution width is to cite three values on the x-axis, the D10, D50, and D90. As used herein, the term “D50” refers to the median particle diameter, wherein half of the particle population has a diameter below such value. As used herein, the term “D90,” refers to the particle diameter wherein 90% of the particle population has a diameter below such value. As used herein, the term “D10,” refers to the particle diameter wherein 10% of the particle population has a diameter below such value.

SMILES | Stability-CPP content % 45° C.-1 week [1] | Stability-CPP content % 45° C.-2 week [1] | Stability-CPP content % 40° C./75% RH-1 month [2] | Stability-CPP content % 40° C./75% RH-3 month [2] | CPP content % [3] | Bulk Density [4] | Tapped Density [5] | Skeletal Density [6] | Solubility [7] | Porosity [8] | Reconstitution time ([9]; strength 0.5 g) | Reconstitution time ([9]; strength 1 g) | Reconstitution time ([9]; strength 2 g) | D10 [10] | D50 [10] | D90 [10]
O=P1(N(CCCl)CCCl)NCCCO1 (stereo not drawn) [CPP monohydrate raw material, P-[N,N-bis(β-chloroethyl)]-1-oxa-3-aza-2-phosphocyclohexane-P-oxide] | 106.1% | 101.8% | 98.9% | 86.1% | 99.6% | – | – | – | – | – | – | – | – | – | – | –
O=P1(N(CCCl)CCCl)NCCCO1 (stereo not drawn) [P-[N,N-bis(β-chloroethyl)]-1-oxa-3-aza-2-phosphocyclohexane-P-oxide] | – | – | – | – | – | 0.6246 g/mL | 0.9369 g/mL | 1.4286 g/mL | soluble in water, normal saline or ethanol | 56.28% | 8.7 min | 11.2 min | 16.4 min | 5.6 μm | 34.8 μm | 262.0 μm

— patent US20200155579A1, “Process for Hydrating Cyclophosphamide Freeze-Dried Composition and Product Thereof” (priority 2018, published 2020)
